Assay results as given in article PMC12392035, “Development of Carborane-Based Benzothiazole Analogues as Cannabinoid Receptor Type 2 (CB2R) Ligands” (ACS Omega, 2025).

Tests used:
[1] = biological target: T1, human CB2R (cannabinoid receptor type 2) (Homo sapiens, UniProt P34972); assay: competitive radioligand binding, CHO membranes; conditions: [3H]WIN55212-2 displacement; mean of two values; read-out: KiCB2R (nM) mean ^a
T1 construct: gene CNR2; stably transfected in CHO cells; crude membrane homogenates
Description: competitive radioligand binding, CHO membranes on human CB2R (cannabinoid receptor type 2)

[2] = biological target: T2, human CB1R (cannabinoid receptor type 1) (Homo sapiens, UniProt P21554); assay: competitive radioligand binding, CHO membranes; conditions: [3H]SR141716A displacement; mean of two values; read-out: KiCB1R (nM) mean ^a
T2 construct: gene CNR1; stably transfected in CHO cells; crude membrane homogenates
Description: competitive radioligand binding, CHO membranes on human CB1R (cannabinoid receptor type 1)

T1 sequence (P34972 whole entry): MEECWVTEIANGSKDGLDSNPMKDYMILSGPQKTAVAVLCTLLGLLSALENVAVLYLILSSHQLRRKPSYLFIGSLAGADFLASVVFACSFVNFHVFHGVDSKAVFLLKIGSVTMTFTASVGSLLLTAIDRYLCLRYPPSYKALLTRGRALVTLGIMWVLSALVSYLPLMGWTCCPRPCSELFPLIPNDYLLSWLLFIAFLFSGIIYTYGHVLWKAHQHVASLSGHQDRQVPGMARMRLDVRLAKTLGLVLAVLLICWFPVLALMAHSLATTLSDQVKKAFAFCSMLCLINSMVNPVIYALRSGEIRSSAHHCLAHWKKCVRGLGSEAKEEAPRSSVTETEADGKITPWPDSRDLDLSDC
T2 sequence (P21554 whole entry): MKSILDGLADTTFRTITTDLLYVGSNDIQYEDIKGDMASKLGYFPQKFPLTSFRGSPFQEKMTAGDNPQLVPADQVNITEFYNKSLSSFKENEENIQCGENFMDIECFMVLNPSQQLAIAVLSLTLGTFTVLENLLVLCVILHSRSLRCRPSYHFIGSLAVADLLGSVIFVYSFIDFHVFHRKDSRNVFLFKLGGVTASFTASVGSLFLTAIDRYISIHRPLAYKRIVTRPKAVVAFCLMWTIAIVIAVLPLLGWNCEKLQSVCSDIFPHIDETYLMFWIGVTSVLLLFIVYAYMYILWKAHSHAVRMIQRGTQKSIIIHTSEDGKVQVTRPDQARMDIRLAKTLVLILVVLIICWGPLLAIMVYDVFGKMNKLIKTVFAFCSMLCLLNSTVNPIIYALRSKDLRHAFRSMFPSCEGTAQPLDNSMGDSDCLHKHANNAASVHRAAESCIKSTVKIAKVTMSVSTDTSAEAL

(Z)-N-(6-Methoxy-3-(2-methoxyethyl)-benzo[d]-thiazol-2(3H)-ylidene)(1,12-closo-dicarba-dodecaborane)-carboxamide [2p]
Ki [1]: 3.17 nM | Ki [2]: 8670 nM

(Z)-N-(6-Methoxy-3-(2-methoxyethyl)-benzo[d]-thiazol-2(3H)-ylidene)(1,7-closo-dicarba-dodecaborane)-carboxamide [2m]
Ki [1]: 2.47 nM | Ki [2]: 42300 nM

(Z)-N-(6-Methoxy-3-(2-methoxyethyl)-benzo[d]-thiazol-2(3H)-ylidene)(1,2-closo-dicarba-dodecaborane)-carboxamide [2o]
Ki [1]: 7.37 nM | Ki [2]: 76800 nM
